Results as given in US10533010B2, “Substituted indole Mcl-1 inhibitors” (Vanderbilt University, priority 2014, dated 2020).
Read-outs that look alike come from different tables or passages of the source.

Target: recombinant Mcl-1 (residues 172-327) (Homo sapiens (Human), UniProt Q07820)
Experiment: Fluorescence polarization anisotropy competition assay (FITC-Bak or FITC-Bim BH3 peptide) with Mcl-1
Type: binding
Conditions: Table 2, FITC-Bak or FITC-Bim peptide competition, Ki converted from IC50, read-out: Ki for Inhibition of Mcl-1

Sequence of recombinant Mcl-1 (residues 172-327) (Q07820 172-327): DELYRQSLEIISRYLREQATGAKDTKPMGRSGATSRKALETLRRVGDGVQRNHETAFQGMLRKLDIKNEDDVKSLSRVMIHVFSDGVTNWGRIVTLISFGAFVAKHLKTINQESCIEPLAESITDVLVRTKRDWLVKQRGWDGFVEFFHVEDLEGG

SMILES: Cc1cc(OCCCc2c(C(=O)Nc3cc(C(=O)O)cc(N4CCN(C)CC4)c3)[nH]c3c(-c4c(C)nn(C)c4C)c(Cl)ccc23)cc(C)c1Cl [I-207, 3-(6-chloro-3-(3-(4-chloro-3,5-dimethylphenoxy)propyl)-7-(1,3,5-trimethyl-1H-pyrazol-4-yl)-1H-indole-2-carboxamido)-5-(4-methylpiperazin-1-yl)benzoic acid]
- Ki (Ki bins given in nM): < 50 nM

SMILES: Cc1cc(OCCCc2c(C(=O)N[C@H]3CCC[C@H]3C(=O)O)[nH]c3c(-c4c(C)nn(C)c4C)cccc23)cc(C)c1Cl [I-314, (1R,2S)-2-(3-(3-(4-chloro-3,5-dimethylphenoxy)propyl)-7-(1,3,5-trimethyl-1H-pyrazol-4-yl)-1H-indole-2-carboxamido)cyclopentane-1-carboxylic acid]
- Ki (Ki bins given in nM): 51 to 100 nM

SMILES: Cc1cc(OCCCc2c(C(=O)N3CCN(c4ccc(C(=O)O)cc4)CC3)n(Cc3ccccn3)c3c(-c4c(C)nn(C)c4C)c(Cl)ccc23)cc(C)c1Cl [I-341, 4-(4-(6-chloro-3-(3-(4-chloro-3,5-dimethylphenoxy)propyl)-1-(pyridin-2-ylmethyl)-7-(1,3,5-trimethyl-1H-pyrazol-4-yl)-1H-indole-2-carbonyl)piperazin-1-yl)benzoic acid]
- Ki (Ki bins given in nM): < 50 nM

SMILES: Cc1cc(OCCCc2c3n(c4c(-c5c(C)nn(C)c5C)c(Cl)ccc24)C[C@@H](C)N(c2ccc(C(=O)O)c4ncccc24)C3=O)cc(C)c1Cl [I-158, (R)-5-(7-chloro-10-(3-(4-chloro-3,5-dimethylphenoxy)propyl)-3-methyl-1-oxo-6-(1,3,5-trimethyl-1H-pyrazol-4-yl)-3,4-dihydropyrazino[1,2-a]indol-2(1H)-yl)quinoline-8-carboxylic acid]
- Ki (Ki bins given in nM): < 50 nM

SMILES: Cc1cc(OCCCc2c3n(c4c(-c5c(C)nn(C)c5C)c(Cl)ccc24)CCCN(c2csc(C(=O)O)n2)C3=O)cc(C)c1Cl [I-360, 4-(8-chloro-11-(3-(4-chloro-3,5-dimethylphenoxy)propyl)-1-oxo-7-(1,3,5-trimethyl-1H-pyrazol-4-yl)-4,5-dihydro-1H-[1,4]diazepino[1,2-a]indol-2(3H)-yl)thiazole-2-carboxylic acid]
- Ki (Ki bins given in nM): < 50 nM

SMILES: Cc1cc(OCCCc2c3n(c4c(-c5c(C)nn(C)c5C)c(Cl)ccc24)C[C@@H](C)N(c2cc(C(=O)O)c4ccn(C)c4c2)C3=O)cc(C)c1Cl [I-160, (R)-6-(7-chloro-10-(3-(4-chloro-3,5-dimethylphenoxy)propyl)-3-methyl-1-oxo-6-(1,3,5-trimethyl-1H-pyrazol-4-yl)-3,4-dihydropyrazino[1,2-a]indol-2(1H)-yl)-1-methyl-1H-indole-4-carboxylic acid]
- Ki (Ki bins given in nM): < 50 nM

SMILES: Cc1ccncc1-c1cc(C(=O)O)cc(N2CCCn3c(c(CCCOc4cc(C)c(Cl)c(C)c4)c4ccc(Cl)c(-c5c(C)nn(C)c5C)c43)C2=O)c1 [I-234, 3-(8-chloro-11-(3-(4-chloro-3,5-dimethylphenoxy)propyl)-1-oxo-7-(1,3,5-trimethyl-1H-pyrazol-4-yl)-4,5-dihydro-1H-[1,4]diazepino[1,2-a]indol-2(3H)-yl)-5-(4-methylpyridin-3-yl)benzoic acid]
- Ki (Ki bins given in nM): < 50 nM

SMILES: Cc1cc(OCCCc2c3n(c4c(-c5c(C)nn(C)c5C)c(Cl)ccc24)CCCN(Cc2cc(OCCCC(C)C)cc(C(=O)O)c2)C3=O)cc(C)c1Cl [I-301, 3-((8-chloro-11-(3-(4-chloro-3,5-dimethylphenoxy)propyl)-1-oxo-7-(1,3,5-trimethyl-1H-pyrazol-4-yl)-4,5-dihydro-1H-[1,4]diazepino[1,2-a]indol-2(3H)-yl)methyl)-5-((4-methylpentyl)oxy)benzoic acid]
- Ki (Ki bins given in nM): < 50 nM

SMILES: Cc1ccc(N2CCCn3c(c(CCCOc4cc(C)c(Cl)c(C)c4)c4ccc(Cl)c(-c5c(C)nn(C)c5C)c43)C2=O)cc1C(=O)O [I-98, 5-(8-chloro-11-(3-(4-chloro-3,5-dimethylphenoxy)propyl)-1-oxo-7-(1,3,5-trimethyl-1H-pyrazol-4-yl)-4,5-dihydro-1H-[1,4]diazepino[1,2-a]indol-2(3H)-yl)-2-methylbenzoic acid]
- Ki (Ki bins given in nM): < 50 nM

SMILES: Cc1cc(OCCCc2c3n(c4c(-c5c(C)nn(C)c5C)c(Cl)ccc24)[C@@H](C)CN(c2cc(C(=O)O)cc4c2ccn4C)C3=O)cc(C)c1Cl [I-167, (S)-4-(7-chloro-10-(3-(4-chloro-3,5-dimethylphenoxy)propyl)-4-methyl-1-oxo-6-(1,3,5-trimethyl-1H-pyrazol-4-yl)-3,4-dihydropyrazino[1,2-a]indol-2(1H)-yl)-1-methyl-1H-indole-6-carboxylic acid]
- Ki (Ki bins given in nM): < 50 nM

SMILES: Cc1cc(OCCCc2c(C(=O)NC3CCN(C(=O)c4cccc(Oc5ccccc5)c4)CC3)[nH]c3ccccc23)cc(C)c1Cl [I-67, 3-(3-(4-chloro-3,5-dimethylphenoxy)propyl)-N-(1-(3-phenoxybenzoyl)piperidin-4-yl)-1H-indole-2-carboxamide]
- Ki (Ki bins given in nM): 501 to 999 nM

SMILES: Cc1cc(OCCCc2c3n(c4c(-c5c(C)nn(C)c5C)c(Cl)ccc24)CCCN(c2cc(C(=O)O)cc4c2c(C=O)cn4C)C3=O)cc(C)c1Cl [I-254, 4-(8-chloro-11-(3-(4-chloro-3,5-dimethylphenoxy)propyl)-1-oxo-7-(1,3,5-trimethyl-1H-pyrazol-4-yl)-4,5-dihydro-1H-[1,4]diazepino[1,2-a]indol-2(3H)-yl)-3-formyl-1-methyl-1H-indole-6-carboxylic acid]
- Ki (Ki bins given in nM): < 50 nM

SMILES: Cc1cc(OCCCc2c3n(c4c(-c5c(C)nn(C)c5C)c(Cl)ccc24)CCCN(Cc2cc(C(=O)O)cc(OCCCC(C)C)n2)C3=O)cc(C)c1Cl [I-303, 2-((8-chloro-11-(3-(4-chloro-3,5-dimethylphenoxy)propyl)-1-oxo-7-(1,3,5-trimethyl-1H-pyrazol-4-yl)-4,5-dihydro-1H-[1,4]diazepino[1,2-a]indol-2(3H)-yl)methyl)-6-((4-methylpentyl)oxy)isonicotinic acid]
- Ki (Ki bins given in nM): < 50 nM

SMILES: Cc1cc(OCCCc2c(C(=O)NCc3cc(C(=O)O)cc(N4CCN(C(=O)CC(C)C)CC4)n3)[nH]c3c(-c4c(C)nn(C)c4C)c(Cl)ccc23)cc(C)c1Cl [I-284, 2-((6-chloro-3-(3-(4-chloro-3,5-dimethylphenoxy)propyl)-7-(1,3,5-trimethyl-1H-pyrazol-4-yl)-1H-indole-2-carboxamido)methyl)-6-(4-(3-methylbutanoyl)piperazin-1-yl)isonicotinic acid]
- Ki (Ki bins given in nM): < 50 nM

SMILES: Cc1cc(OCCCc2c(C(=O)N3CCC(CC(=O)O)CC3)[nH]c3c(-c4c(C)nn(C)c4C)cccc23)cc(C)c1Cl [I-204, 2-(1-(3-(3-(4-chloro-3,5-dimethylphenoxy)propyl)-7-(1,3,5-trimethyl-1H-pyrazol-4-yl)-1H-indole-2-carbonyl)piperidin-4-yl)acetic acid]
- Ki (Ki bins given in nM): 51 to 100 nM

SMILES: Cc1cc(OCCCc2c3n(c4c(-c5c(C)nn(C)c5C)c(Cl)ccc24)CCCN(Cc2ccc(C(=O)NS(=O)(=O)c4ccc(OCc5cccnc5)cc4)cc2)C3=O)cc(C)c1Cl [I-310, 4-((8-chloro-11-(3-(4-chloro-3,5-dimethylphenoxy)propyl)-1-oxo-7-(1,3,5-trimethyl-1H-pyrazol-4-yl)-4,5-dihydro-1H-[1,4]diazepino[1,2-a]indol-2(3H)-yl)methyl)-N-((4-(pyridin-3-ylmethoxy)phenyl)sulfonyl)benzamide]
- Ki (Ki bins given in nM): < 50 nM

SMILES: CCOC(=O)CCNC(=O)c1[nH]c2ccccc2c1CCCOc1cc(C)c(Cl)c(C)c1 [I-10, ethyl 3-(3-(3-(4-chloro-3,5-dimethylphenoxy)propyl)-1H-indole-2-carboxamido)propanoate]
- Ki (Ki bins given in μM): 10000 to 50000 nM

SMILES: Cc1cc(OCCCc2c(C(=O)NCC(=O)O)[nH]c3c(-c4c(C)nn(C)c4C)cccc23)cc(C)c1Cl [I-286, (3-(3-(4-chloro-3,5-dimethylphenoxy)propyl)-7-(1,3,5-trimethyl-1H-pyrazol-4-yl)-1H-indole-2-carbonyl)glycine]
- Ki (Ki bins given in nM): < 50 nM

SMILES: Cc1cc(OCCCc2c(C(=O)NCCS(=O)(=O)NC(=O)Cc3ccc(Br)cc3)[nH]c3ccccc23)cc(C)c1Cl [I-53, N-(2-(N-(2-(4-bromophenyl)acetyl)sulfamoyl)ethyl)-3-(3-(4-chloro-3,5-dimethylphenoxy)propyl)-1H-indole-2-carboxamide]
- Ki (Ki bins given in nM): 301 to 500 nM

SMILES: Cc1cc(OCCCc2c3n(c4c(-c5c(C)nn(C)c5C)c(Cl)ccc24)CCCN(c2cc(C(=O)O)c4c(ccn4C)c2)C3=O)cc(C)c1Cl [I-250, 5-(8-chloro-11-(3-(4-chloro-3,5-dimethylphenoxy)propyl)-1-oxo-7-(1,3,5-trimethyl-1H-pyrazol-4-yl)-4,5-dihydro-1H-[1,4]diazepino[1,2-a]indol-2(3H)-yl)-1-methyl-1H-indole-7-carboxylic acid]
- Ki (Ki bins given in nM): < 50 nM

SMILES: CCOC(=O)c1ccc(CNC(=O)c2[nH]c3c(-c4c(C)n[nH]c4C)cccc3c2CCCOc2cc(C)c(Cl)c(C)c2)o1 [I-61, ethyl 5-((3-(3-(4-chloro-3,5-dimethylphenoxy)propyl)-7-(3,5-dimethyl-1H-pyrazol-4-yl)-1H-indole-2-carboxamido)methyl)furan-2-carboxylate]
- Ki (Ki bins given in μM): 10000 to 50000 nM

SMILES: Cc1cc(OCCCc2c(C(=O)NCc3cccc(OC(F)(F)F)c3)[nH]c3c(-c4c(C)nn(C)c4C)cccc23)cc(C)c1Cl [I-264, 3-(3-(4-chloro-3,5-dimethylphenoxy)propyl)-N-(3-(trifluoromethoxy)benzyl)-7-(1,3,5-trimethyl-1H-pyrazol-4-yl)-1H-indole-2-carboxamide]
- Ki (Ki bins given in μM): 1000 to 9990 nM

SMILES: Cc1cc(OCCCc2c3n(c4c(-c5c(C)nn(C)c5C)c(Cl)ccc24)CCCN(c2cc(C(=O)O)c4ccn(Cc5cccnc5)c4c2)C3=O)cc(C)c1Cl [I-241, 6-(8-chloro-11-(3-(4-chloro-3,5-dimethylphenoxy)propyl)-1-oxo-7-(1,3,5-trimethyl-1H-pyrazol-4-yl)-4,5-dihydro-1H-[1,4]diazepino[1,2-a]indol-2(3H)-yl)-1-(pyridin-3-ylmethyl)-1H-indole-4-carboxylic acid]
- Ki (Ki bins given in nM): < 50 nM

SMILES: Cc1cc(OCCCc2c3n(c4c(-c5c(C)nn(C)c5C)c(Cl)ccc24)CCCN(c2cc(C(=O)O)c4cnn(C)c4c2)C3=O)cc(C)c1Cl [I-367, 6-(8-chloro-11-(3-(4-chloro-3,5-dimethylphenoxy)propyl)-1-oxo-7-(1,3,5-trimethyl-1H-pyrazol-4-yl)-4,5-dihydro-1H-[1,4]diazepino[1,2-a]indol-2(3H)-yl)-1-methyl-1H-indazole-4-carboxylic acid]
- Ki (Ki bins given in nM): < 50 nM
